# Assay results as given in US9822107B2, “Thiazole-substituted aminoheteroaryls as spleen tyrosine kinase inhibitors” (MERCK SHARP & DOHME CORP., priority 2013, dated 2017).
# Tested on: not given
# Test: not given
# Settings: phase II clinical trial, allergic rhinitis; cited from earlier work
row,SMILES,efficacy versus placebo
1,Oc1cccc(Nc2ncc(F)c(Nc3cccc(O)c3)n2)c1 [Example R112],lack of efficacy versus placebo

# Target: T1, recombinant human GST-SYK (Homo sapiens, UniProt P43405)
# T1 construct: purchased Carna Biosciences 08-176
# Test: Homogeneous Time-Resolved Fluorescence (HTRF) assay for the recombinant human Syk enzyme
# Assay type: biochemical
# Settings: recombinant human GST-SYK 5 pM, ATP 25 μM, read-out: rhSYK Activity (IC50)
# Description: Homogeneous Time-Resolved Fluorescence (HTRF) Assay for the Recombinant Human Syk Enzyme
# A recombinant GST-hSYK fusion protein was used to measure potency of compounds to inhibit human Syk activity. […] Final volume of the reaction was 10 μL. Phosphorylation of the peptide was allowed to proceed for 45′ at room temperature. To quench the reaction and detect the phosphorylated product, 2 nM of a Europium-anti-phosphotyrosine antibody (Perkin Elmer #AD0161) and 70 nM SA-APC (Perkin-Elmer #CR130-100) were added together in 15 mM Tris pH 7.5, 40 mM EDTA, 0.01% tween 20. Final volume of the quenching solution was 10 μL.
# The resulting HTRF signal was measured after 30 minutes on an EnVision (Perkin-Elmer) reader using a time-resolved fluorescence protocol.
row,SMILES,IC50
1,"O=C(O)[C@H]1CC[C@](O)(c2ncc(-c3c[nH]c4ccc(Nc5nccc(C(F)F)n5)cc34)s2)CC1 [Example 1.12, cis 4-(5-(5-((4-(difluoromethyl)pyrimidin-2-yl)amino)-1H-indol-3-yl)thiazol-2-yl)-4-hydroxy-cyclohexanecarboxylic acid]",0.5 nM
2,"C[C@](O)(c1ncc(-c2cc(Nc3nccc(C(F)(F)F)n3)cc3[nH]ncc23)s1)C1CCC(C(=O)O)CC1 (single isomer, unassigned) [Example 2.11, (trans)-4-((R or S)-(1-hydroxy-1-(5-(6-((4-(trifluoromethyl)pyrimidin-2-yl)amino)-1H-indazol-4-yl)thiazol-2-yl)ethyl)cyclohexanecarboxylic acid]",0.5 nM
3,"CC(O)(c1ncc(-c2c[nH]c3cc(Nc4nccc(C(F)(F)F)n4)ccc23)s1)[C@H]1CC[C@H](C(=O)O)CC1 (single isomer, unassigned) [Example 1.9, (trans)-4-((R or S)-1-hydroxy-1-(5-(6-((4-(trifluoromethyl)pyrimidin-2-yl)amino)-1H-indol-3-yl)thiazol-2-yl)ethyl) cyclohexanecarboxylic acid]",39.9 nM
4,"CC(O)(c1ncc(-c2ccnc3cc(Nc4nccc(C(F)(F)F)n4)ccc23)s1)[C@H]1CC[C@H](C(=O)O)CC1 (single isomer, unassigned) [Example 1.6]",61.6 nM
5,"CC1(C)Oc2c(cc(Nc3nccc(C(F)(F)F)n3)cc2-c2cnc(C(C)(O)C(F)(F)F)s2)NC1=O (stereo not shown) [Example 2.5, 2,2-dimethyl-8-[2-(2,2,2-trifluoro-1-hydroxy-1-methylethyl)-1,3-thiazol-5-yl]-6-{[4-(trifluoromethyl)pyrimidin-2-yl]amino}-2H-1,4-benzoxazin-3(4H)-one]",35.8 nM
6,"CC1(C)Oc2c(cc(Nc3nccc(-c4c[nH]nn4)n3)cc2-c2cnc([C@]3(O)CC[C@@H](C(=O)O)CC3)s2)NC1=O [Example 2.1, (cis)-4-(5-(6-((4-(1H-1,2,3-Triazol-4-yl)pyrimidin-2-yl)amino)-2,2-dimethyl-3-oxo-3,4-dihydro-2H-benzo[b][1,4]oxazin-8-yl)thiazol-2-yl)-4-hydroxycyclohexanecarboxylic acid]",0.3 nM
7,"CCOC(=O)[C@H]1CC[C@](O)(c2ncc(-c3cc(Nc4nccc(OC(C)C)n4)cc4c3OC(C)(C)C(=O)N4)s2)CC1 [Example 2.6, ethyl cis-4-[5-(2,2-dimethyl-6-{[4-(1-methylethoxy)pyrimidin-2-yl]amino}-3-oxo-3,4-dihydro-2H-1,4-benzoxazin-8-yl)-1,3-thiazol-2-yl]-4-hydroxy-cyclohexanecarboxylate]",7.1 nM
8,"CC1(C)C[C@@H](C(C)(O)c2ncc(-c3cc(Nc4nccc(C(F)(F)F)n4)cc4cn[nH]c34)s2)CC[C@@H]1C(=O)O (single isomer, unassigned) [Example 2.9, (trans)-4-((R or S)-1-hydroxy-1-[5-(5-{[4-(trifluoromethyl)pyrimidin-2-yl]amino}-1H-indazol-7-yl)-1,3-thiazol-2-yl]ethyl}-2,2-dimethylcyclohexanecarboxylic acid]",0.866 nM
9,"CC(O)(c1ncc(-c2cc(Nc3nccc(C(F)(F)F)n3)cc3cn[nH]c23)s1)[C@H]1CC[C@H](C(=O)O)CC1 (single isomer, unassigned) [Example 2.10, (trans)-4-((R or S)-1-hydroxy-1-[5-(5-{[4-(trifluoromethyl)pyrimidin-2-yl]amino}-1H-indazol-7-yl)-1,3-thiazol-2-yl]ethyl}cyclohexanecarboxylic acid]",0.114 nM
10,"CC(O)(c1ncc(-c2cc(Nc3nccc(C(F)(F)F)n3)cc3[nH]cnc23)s1)[C@H]1CC[C@H](C(=O)O)CC1 (single isomer, unassigned) [Example 2.12, (trans)-4-((R or S)-1-hydroxy-1-(5-(6-((4-(trifluoromethyl)pyrimidin-2-yl)amino)-1H-benzo[d]imidazol-4-yl)thiazol-2-yl)ethyl)cyclohexanecarboxylic acid]",0.5 nM
11,"CC(C)Oc1ccnc(Nc2cc3c(c(-c4cnc([C@]5(O)CC[C@@H](C(=O)O)CC5)s4)c2)OC(C)(C)C(=O)N3)n1 [Example 2.7, cis-4-[5-(2,2-dimethyl-6-{[4-(1-methylethoxy)pyrimidin-2-yl]amino}-3-oxo-3,4-dihydro-2H-1,4-benzoxazin-8-yl)-1,3-thiazol-2-yl]-4-hydroxy-cyclohexanecarboxylic acid]",0.366 nM

# The next lines start with the values.
row,IC50,SMILES
1,0.06 nM,"CC1(C)C[C@@](O)(c2ncc(-c3cc(Nc4nccc(C(F)(F)F)n4)cc4[nH]ccc34)s2)CC[C@@H]1C(=O)O (single isomer, unassigned) [Example 1.3, (1S,4R or 1R,4S)-4-hydroxy-2,2-dimethyl-4-[5-(6-{[4-(trifluoromethyl)pyrimidin-2-yl]amino}-1H-indol-4-yl)-1,3-thiazol-2-yl]cyclohexane-carboxylic acid]"
2,0.5 nM,O=C(O)[C@H]1CC[C@](O)(c2ncc(-c3c[nH]c4ccc(Nc5nccc(C(F)(F)F)n5)cc34)s2)CC1 [Example 1.8]
3,10.1 nM,"O=c1[nH]c2cc(Nc3nccc(C(F)(F)F)n3)cc(-c3cnc(C4(O)CCC4)s3)c2[nH]1 [Example 2.4, 4-[2-(1-hydroxycyclobutyl)-1,3-thiazol-5-yl]-6-{[4-(trifluoromethyl)pyrimidin-2-yl]amino}-1,3-dihydro-2H-benzimidazol-2-one]"
4,0.5 nM,"CC(O)(c1ncc(-c2cc(Nc3nccc(C(F)(F)F)n3)cc3[nH]ccc23)s1)[C@H]1CC[C@H](C(=O)O)CC1 (single isomer, unassigned) [Example 1.1, (trans)-4-((R or 5)-1-hydroxy-1-(5-(6-((4-(trifluoromethyl)pyrimidin-2-yl)amino)-1H-indol-4-yl)thiazol-2-yl)ethyl)cyclohexanecarboxylic acid]"
5,0.552 nM,"CC1(C)C[C@@](O)(c2ncc(-c3cc(Nc4nccc(C(F)(F)F)n4)cc4cn[nH]c34)s2)CC[C@@H]1C(=O)O (single isomer, unassigned) [Example 2.8]"
6,63.2 nM,"CC1(C)C[C@@](O)(c2ncc(-c3ccnc4cc(Nc5nccc(C(F)(F)F)n5)ccc34)s2)CC[C@@H]1C(=O)O (single isomer, unassigned) [Example 1.5, (1S,4R or 1R,4S)-4-hydroxy-2,2-dimethyl-4-(5-(7-((4-(trifluoromethyl)pyrimidin-2-yl)amino)quinolin-4-yl)thiazol-2-yl)cyclohexanecarboxylic acid]"
7,13.2 nM,"CC1(C)Oc2c(cc(Nc3nccc(C(F)(F)F)n3)cc2-c2cnc(C3(O)CCC3)s2)NC1=O [Example 2.2, 8-[2-(1-hydroxycyclobutyl)-1,3-thiazol-5-yl]-2,2-dimethyl-6-{[4-(trifluoromethyl)pyrimidin-2-yl]amino}-2H-1,4-benzoxazin-3(4H)-one]"
8,49 nM,"CC1(C)C[C@@](O)(c2ncc(-c3c[nH]c4cc(Nc5nccc(C(F)(F)F)n5)ccc34)s2)CC[C@@H]1C(=O)O (single isomer, unassigned) [Example 1.7, (1S,4R or 1R,4S)-4-hydroxy-2,2-dimethyl-4-(5-(6-((4-(trifluoromethyl)pyrimidin-2-yl)amino)-1H-indol-3-yl)thiazol-2-yl)cyclohexanecarboxylic acid]"
9,0.5 nM,O=C(O)[C@H]1CC[C@](O)(c2ncc(-c3n[nH]c4ccc(Nc5nccc(C(F)(F)F)n5)cc34)s2)CC1 [Example 1.11]
10,0.477 nM,"Cn1ccc2c(-c3cnc([C@@]4(O)CC[C@H](C(=O)O)C(C)(C)C4)s3)cc(Nc3nccc(C(F)(F)F)n3)cc21 (single isomer, unassigned) [Example 1.4, (1S,4R or 1R,4S)-4-hydroxy-2,2-dimethyl-4-[5-(1-methyl-6-{[4-(trifluoromethyl)pyrimidin-2-yl]amino}-1H-indol-4-yl)-1,3-thiazol-2-yl]cyclohexane-carboxylic acid]"
11,10.4 nM,"OC1(c2ncc(-c3cc(Nc4nccc(C(F)(F)F)n4)cc4[nH]ccc34)s2)CCC1 [Example 1.2, 1-[5-(6-{[4-(trifluoromethyl)pyrimidin-2-yl]amino}-1H-indol-4-yl)-1,3-thiazol-2-yl]cyclobutanol]"

# Tested on: PGD2
# Test: not given
# Settings: dosed intranasally, phase I/II study, allergic rhinitis; cited from earlier work
SMILES,clinical safety,decrease in PGD2
Oc1cccc(Nc2ncc(F)c(Nc3cccc(O)c3)n2)c1 [Example R112],safe across a range of indicators,statistically significant decrease
